Laboratory results taken from patent US4201784A, “Substituted 2-[2'-(5"-nitrofuryl-2")vinyl-and 4'-(5"-nitrofuryl-2"-1,3-butadieryl]quinoline-4-carboxylic acid amides and salts thereof” (Institut Organicheskogo Sinteza Akademii Nauk Latviiskoi SSR, priority 1977, dated 1980).
“Also recorded” adds a separate entry of the source.

What was measured:
[1] = test system: lymphatic leukemia L 5178Y; test: Antitumor activity, lymphatic leukemia L 5178Y; assay type: in vivo, mice
Protocol: (§1) Apart from the tests on Ehrlich ascitic tumor, giniquine was studied on twelve more inoculated tumors. Seven tumors (melanoma B16, sarcoma AK, large intestine carcinoma acatol-1, sarcoma 180, adenocarcinoma 755, Lewis lung carcinoma and sarcoma 37) were inoculated subcutaneously with 50 mg of tumoral cells per mouse. Four tumors (lymphatic leukemies L 5178, L 5178Y, L 1210 and P-388) were inoculated intraperitoneally with 10^6 cells per mouse. One tumor (La, hemocytoblastosis) was inoculated intraperitoneally by injecting 50 mg of cell suspension of spleen and liver of mice suffering La hemocytoblastosis, per mouse. Giniquine was injected intraperitoneally five times for seven days: 1,2,3,4,7 days or 3,4,5,6,7 days after the implantation of tumor. The rate of deceleration of the tumor growth was established 14 days after the ultimate injection of giniquine; life of test animals was recorded for 60 days.

LD50, intact mice = conditions: mouse, in vivo, ip, intraperitoneal
[2] = LD50 / toxicity, mice with 7-days Ehrlich ascitic tumor; assay type: in vivo; conditions: for LD50: mouse, in vivo
Lewis lung carcinoma = test: Antitumor / antimetastatic activity, Lewis lung carcinoma; assay type: in vivo, mice
Protocol: as §1

Ehrlich ascitic tumor = test: Influence of fluorafur on antitumor activity of giniquine, Ehrlich ascitic tumor; assay type: in vivo, mice
Protocol: In some experiments the influence of the known preparation fluorofur on the antitumoral activity of giniquine was studied. […] The tests were made on Ehrlich ascitic tumor. The preparations were injected 1,2,3,4 and 7 days after the implantation of tumor. Giniquine was injected intraperitoneally and fluorafur-subcutaneously.
giniquine was injected intraperitoneally, and fluorafursubcutaneously.

adenocarcinoma 755 = test: Antitumor activity, adenocarcinoma 755; assay type: in vivo, mice
Protocol: as §1

[3] = test system: lymphatic leukemia L 5178; test: Antitumor activity, life prolongation, lymphatic leukemia L 5178; assay type: in vivo, mice
Protocol: as §1

sarcoma 180 = test: Antitumor activity, sarcoma 180; assay type: in vivo, mice
Protocol: as §1

Kidneys = test: In vivo biosynthesis of DNA, RNA and protein in kidneys; parameters: species or system mice; conditions: 24 hours, intraperitoneal 28 mg/kg
Protocol: The influence of giniquine on biosynthetic processes in the in vivo tests was studied on common white mice of a mass of 25-35 g with Ehrlich ascitic tumor.
The mice were divided into two groups. The animals in the first group were given a single injection of the preparation in differing doses, and the animals in the second group were treated with distilled water. Three series of experiments were conducted. In the first series of tests (16 mice) the preparation was injected in a dose of 100 mg/kg ([…] dose), and the animals were decapitated one hour after the injection; in the second test series (16 mice) the animals were slaughtered 3 hours after the injection with other conditions being the same. In the third test series (35 mice) the influence of giniquine on plastic metabolism in tumor cells and normal tissues was studied 24 hours after the injection of a 0.33% solution of the preparation in a dose of 28 mg/kg (therapeutical dose).
Labeled precursors of nucleic acids and protein were injected intraperitoneally one hour before the slaughter of the animals (50 μc/100 g). Ascitic fluid, as well as liver and spleen, mucous membrane of small intestine, brain, kidneys and lungs were taken for analysis. 10% suspension was prepared from tumor cells, and 10% homogenates were prepared from tissues in a physiological solution.
Tumor cells and tissue homogenates for precipitation of nucleic acids were treated with 57% perchloric acid (10:1). […] Radioactivity of DNA and RNA fractions was measured by means of a liquid scintillation counter. The quantity of DNA and RNA was determined by spectrophotometry: the quantity of DNA was determined with diphenylamine, and RNA- with orcin.
To prepare protein hydrolysate, the suspension of tumoral cells and homogenates of normal tissues were treated with cool 10% trichloracetic acid (1:4), with subsequent centrifuging at 2000 g for ten minutes. […] The radioactivity was measured by means of a liquid scintillation counter. Protein was quantitatively determined by spectrophotometry using a microbiuret reaction.

[4] = BDF1 female mice, intraperitoneal, days 1,2,3,4,7, optimum daily dose 6.0 mg/kg
[5] = BDF1 female mice, intraperitoneal, days 1,2,3,4,7, optim. daily dose 6.0 mg/kg

In the case of `CCN(CC)CCCC(C)NC(=O)c1cc(C=Cc2ccc([N+](=O)[O-])o2)nc2ccccc12` (stereo not drawn) [giniquine, 2-[2'-(5"-nitrofuryl-2")vinyl]quinoline-4-carboxylic acid (α-methyl-δ-diethylaminobutyl)amide triphosphate], the Max. life prolong. [1, 4] is reported as 5%, the “sensitivity (in words)” value ([1]; L-5178Y) is reported as “practically insensitive” and the LD50 (LD50, intact mice; single injection, female) is reported as 33 mg/kg. For the same compound, the LD50 (LD50, intact mice; single injection, male) was 30 mg/kg, the LD50 (LD50, intact mice; ten injections, female) was 8 mg/kg and the LD50 (LD50, intact mice; ten injections, male) was 7.3 mg/kg. For the same compound, the “toxicity compared to intraperitoneal injection” value ([2]; intravenous injection) was “five times greater”, the LD50 ([2]; ip, intraperitoneal, ten injections, female) was 10 mg/kg and the LD50 ([2]; ip, intraperitoneal, ten injections, male) was 7 mg/kg. For the same compound, the LD50 ([2]; iv, single injection, female) was 17.5 mg/kg, the LD50 ([2]; iv, single injection, male) was 20 mg/kg and the Max. life prolong. (Lewis lung carcinoma; [4]) was 15%. For the same compound, the “antimetastatic activity / sensitivity (in words)” value (Lewis lung carcinoma; Lewis lung carcinoma) was “practically insensitive”, the Life prolongation (Ehrlich ascitic tumor; Test No. 1, giniquine 3.6 mg/kg daily) was 55% and the Life prolongation (Ehrlich ascitic tumor; Test No. 1, giniquine 6.0 mg/kg daily) was 67%. The Life prolongation (Ehrlich ascitic tumor; Test No. 1, giniquine 10.0 mg/kg daily) was 38%, the Life prolongation (Ehrlich ascitic tumor; Test No. 1, giniquine 17.0 mg/kg daily) was -5% and the Life prolongation (Ehrlich ascitic tumor; Test No. 2, giniquine 3.6 mg/kg daily) was 45%. The Life prolongation (Ehrlich ascitic tumor; Test No. 2, giniquine 6.0 mg/kg daily) was 98%, the Life prolongation (Ehrlich ascitic tumor; Test No. 2, giniquine 10.0 mg/kg daily) was 5% and the Life prolongation (Ehrlich ascitic tumor; Test No. 2, giniquine 17.0 mg/kg daily) was -48%. For the same compound, the “Deceleration of tumor growth” value (adenocarcinoma 755; [5]) was 28%, the “Max. prolongation of life” value (adenocarcinoma 755; [5]) was 25% and the “antitumor effect (in words)” value (adenocarcinoma 755; adenocarcinoma 755) was “slight antitumor effect”. For the same compound, the Max. life prolong. ([3]; common female mice, intraperitoneal, days 1,2,3,4,7, optimum daily dose 10.0 mg/kg) was 30%, the “antiblastic activity / sensitivity (in words)” value ([3]; lymphatic leukemia L 5178) was “slight antitumor effect” and the “Deceleration of tumor growth” value (sarcoma 180; common female mice, intraperitoneal, days 3,4,5,6,7, optim. daily dose 6.0 mg/kg) was 37%. For the same compound, the “Max. prolongation of life” value (sarcoma 180; common female mice, intraperitoneal, days 3,4,5,6,7, optim. daily dose 10.0 mg/kg) was 23%, the “antitumor effect / sensitivity (in words)” value (sarcoma 180; sarcoma 180) was “slight antitumor effect” and the “Incorporation of specific precursors, DNA” value (Kidneys) was 178.0 % of control. For the same compound, the “Incorporation of specific precursors, Protein” value (Kidneys) was 105.0 % of control, the “Incorporation of specific precursors, RNA” value (Kidneys) was 148.0 % of control and the germicidal activity (Germicidal activity) was “exhibits a germicidal activity; also recorded: combines in itself both actions”.
